Results on 86 compounds are retold here after PubChem BioAssay AID1259375 (The Scripps Research Institute Molecular Screening Center, 2018).

The experiment addresses Microphthalmia-associated transcription factor (Homo sapiens) (UniProt O75030). Description: MITF inhibitors by FRET titration, dose response, biochemical, high throughput (AID 1259375).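 Note: FRET between CFP-tagged and YFP-tagged MITF protein partners.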 Conditions: FRET biochemical assay, MITF inhibition.

Calls of active or inactive are those of the source. The rule behind the calls is not given here.

As a reminder, the IC50 is the concentration that gives 50% inhibition.

Chain of Microphthalmia-associated transcription factor (Homo sapiens) (O75030 whole entry, looked up): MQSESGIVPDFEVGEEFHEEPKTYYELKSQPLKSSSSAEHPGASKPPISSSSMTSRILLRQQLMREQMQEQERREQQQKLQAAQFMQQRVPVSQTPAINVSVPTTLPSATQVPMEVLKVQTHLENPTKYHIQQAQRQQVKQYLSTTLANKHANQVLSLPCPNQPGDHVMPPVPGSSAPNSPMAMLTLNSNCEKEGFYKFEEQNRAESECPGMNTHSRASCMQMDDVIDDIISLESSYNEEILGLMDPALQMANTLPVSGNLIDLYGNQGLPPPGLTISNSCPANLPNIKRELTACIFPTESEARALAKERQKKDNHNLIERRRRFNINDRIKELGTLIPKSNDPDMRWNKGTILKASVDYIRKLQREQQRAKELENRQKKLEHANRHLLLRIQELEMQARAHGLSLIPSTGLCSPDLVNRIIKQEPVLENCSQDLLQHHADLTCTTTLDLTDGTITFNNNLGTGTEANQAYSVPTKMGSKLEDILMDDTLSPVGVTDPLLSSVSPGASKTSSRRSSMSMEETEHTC

Turning to `O=S(=O)(O)c1cc(S(=O)(=O)O)c2cc(O)c(S(=O)(=O)O)cc2c1`, the IC50 is > 6.48 µM (inactive).
As for `O=C(OC1CCOC1=O)c1ccc(S(=O)(=O)NCc2ccco2)cc1` (stereo unspecified), the IC50 is > 7.1 µM (inactive).
The figure for `NC(=O)n1c(CCC(=O)O)nc2sc3c(c2c1=O)CCC3` is > 6.75 µM (inactive).
The figure for `O=C(/C=C/c1ccco1)C1=C(O)C(=O)N(CCCN2CCOCC2)C1c1ccco1` (stereo unspecified) is > 6.48 µM (inactive); for `CCOC1=CC(c2ccc3c(c2)OCO3)CC(=O)c2c(C)oc(C)c21` (stereo unspecified) it is > 6.48 µM (inactive); for `O=C(CCc1ccco1)Nc1ccc(-c2cn3c4c(nnc3n2)CCCC4)cc1` it is > 6.48 µM (inactive).
Turning to `COc1ccc(CN2CCN(Cc3cccc(Cl)c3)CC2)cc1Br`, the IC50 is > 6.11 µM (inactive).
In the case of `O=C1N[C@@H](Cc2ccccc2)C(=O)N2CCN(C(=O)NCc3ccccc3)C[C@H]12`, the IC50 was > 6.48 µM (inactive).
On to `Cc1ccc(C)n1C(CC(=O)O)c1ccsc1` (stereo unspecified), for which the IC50 is > 6.76 µM (inactive).
Consider `CC[C@H](C)[C@@H]1NC(=O)[C@H]2CN(C(=O)Nc3cccc(F)c3)CCN2C1=O`, for which the IC50 is > 6.48 µM (inactive).
With `COc1cc(-c2ccnc(N)n2)ccc1NC(=O)[C@H]1COc2ccccc2O1`, the IC50 is > 6.48 µM (inactive).
The figure for `NC(=O)c1ccc2nc(-c3cccs3)sc2c1` is > 6.18 µM (inactive); for `Cc1ccc(C(=O)Nc2ccc([N+](=O)[O-])cn2)o1` it is > 6.48 µM (inactive).
In the case of `CN(C)[C@@H]1C(=O)C(C(=O)NCN2CCCC2)=C(O)[C@@]2(O)C(=O)C3=C(O)c4c(O)cccc4[C@@](C)(O)C3CC12` (stereo partly specified), the IC50 was > 6.48 µM (inactive).
The figure for `COc1cc(OC)c(OC)cc1CN1CCN(Cc2ccc(C)cc2)CC1` is > 5.76 µM (inactive); for `O=C(c1ccncc1)N1CCN(Cc2ccccc2[N+](=O)[O-])CC1` it is > 6.13 µM (inactive); for `O=C(O)CCCNC(=O)/C=C/c1ccco1` it is > 6.48 µM (inactive).
As to `NC(=O)Cn1cnc2sc3c(c2c1=O)CCC3`, the IC50 was > 6.48 µM (inactive).
As for `CN(N=O)c1cc(O)ccc1O`, the IC50 is > 6.48 µM (inactive).
On to `CN1C(=O)[C@H]2CN(C(=O)NC3CCCCC3)CCN2C(=O)[C@@H]1CO`, for which the IC50 was > 6.48 µM (inactive).
The value for `CCN(CC)c1ncnc2c1ncn2[C@@H]1O[C@H](COP(=O)(O)OP(=O)(O)C(Br)(Br)P(=O)(O)O)C(O)[C@@H]1O` (stereo partly specified) was > 6.48 µM (inactive); that for `O=C1Nc2ccc(S(=O)(=O)NCc3ccccc3)cc2C1=O` was > 6.08 µM (inactive); that for `Cc1c(NC(=O)C(C)OC(=O)c2cc3c(s2)CCC3)c(=O)n(-c2ccccc2)n1C` (stereo unspecified) was > 6.7 µM (inactive).
The value for `O=P(O)(O)C(O)(CCNC(=S)Nc1ccccc1)P(=O)(O)O` was > 6.83 µM (inactive); that for `CCOC(=O)N1CCC(NC(=O)CCc2nc(C3=CCN(C)CC3)no2)CC1` was > 6.48 µM (inactive); that for `Cc1cc(C)n(C(=O)/C=C/c2ccco2)n1` was > 6.48 µM (inactive).
Take `Cc1ccc(N2C(=O)c3ccccc3NC2c2cccc([N+](=O)[O-])c2)cc1` (stereo unspecified): the IC50 is > 5.15 µM (inactive).
For `O=C(Cn1ncn2cccc2c1=O)N1CCc2ccccc2C1`, the IC50 was > 6.48 µM (inactive).
Consider `Cc1ccc(O)c(NC(=S)NC(=O)/C=C/c2ccco2)c1`, for which the IC50 was > 6.48 µM (inactive).
As for `O=c1cc(/C=C/c2ccc(O)cc2)nc2nn[nH]n12`, the IC50 is > 6.48 µM (inactive).
Consider `C/C(N)=C(/C#N)C(=O)COC(=O)c1c2c(nc3ccccc13)/C(=C/c1ccco1)CC2`, for which the IC50 was > 6.27 µM (inactive).
The value for `O=C(Nc1ccc(Cl)cc1Cl)N1CCN2C(=O)[C@@H]3CSCN3C(=O)[C@H]2C1` was > 6.48 µM (inactive).
The value for `c1coc(CNc2ccc3ncc(-c4ccco4)n3n2)c1` was > 6.48 µM (inactive).
The figure for `Cc1cc(O)c2c(c1)Cc1cccc(O)c1C2=O` is > 6.48 µM (inactive); for `Cc1[nH][nH]c(=O)c1C(c1ccc([N+](=O)[O-])o1)c1c(C)[nH][nH]c1=O` it is > 6.48 µM (inactive); for `CCOC(=O)C1C2NC(=S)N(c3cccc(Cl)c3)C1(C)Oc1c(OC)cccc12` (stereo unspecified) it is > 5.09 µM (inactive).
On to `O=C(/C=C/c1ccc(-c2cccc(C(F)(F)F)c2)o1)c1ccco1`, for which the IC50 was > 6.63 µM (inactive).
For the compound `O=C(/C=C/c1ccco1)NC(=S)Nc1cccc(C(=O)O)c1`, the IC50 was > 6.48 µM (inactive).
For `Clc1ccc2c(c1)CC(c1nc(Nc3cncnc3)c3ccccc3n1)CO2` (stereo unspecified), the IC50 is > 6.48 µM (inactive).
The value for `CN(C)/C=C/C=C/C(=O)C1CCC/C(=C\C=C\N(C)C)C1=O` (stereo unspecified) was > 6.48 µM (inactive).
Turning to `COc1ccc(OC)c(CN2CCN(Cc3ccc(F)cc3)CC2)c1`, the IC50 was > 6.11 µM (inactive).
For the compound `CCCOc1ccc(N)cc1N`, the IC50 was > 6.22 µM (inactive).
Turning to `CCN(CCN(C)C)Cc1ccc(F)cc1`, the IC50 is > 6.48 µM (inactive).
On to `O=c1[nH]c(-c2ccco2)nc2sc3c(c12)CCCC3`, for which the IC50 is > 9.74 µM (inactive).
In the case of `O=P(O)(O)C(Sc1ccc(Cl)cc1)P(=O)(O)O`, the IC50 is > 6.48 µM (inactive).
`CC(=O)NCC(c1cccs1)S(=O)(=O)c1ccc(C)cc1` (stereo unspecified): the IC50 is > 6.41 µM (inactive).
On to `Cc1cccc(C(=O)Nc2c3c(nn2-c2ccc(F)cc2)CSC3)c1`, for which the IC50 is > 5.53 µM (inactive).
With `Cc1cc(C)nc(NS(=O)(=O)c2ccc(N3C(=O)C=CC3=O)cc2)n1`, the IC50 is > 6.48 µM (inactive).
The value for `CC(=C/C(=O)O)/C=C/c1ccoc1` was > 9.75 µM (inactive).
As for `Cc1ncn(-c2ccc(N(C)c3ncc4cccc(-c5ccn[nH]5)c4n3)cc2)n1`, the IC50 is > 6.48 µM (inactive).
Regarding `COC(=O)CSc1nnc(-c2ccco2)n1Cc1ccco1`, the IC50 is > 6.48 µM (inactive).
For the compound `CN(C)CCNc1nc(C2COc3ccccc3O2)nc2ccc(-c3cn[nH]c3)cc12` (stereo unspecified), the IC50 is > 6.48 µM (inactive).
Regarding `O=C1N[C@H](Cc2ccc(O)cc2)C(=O)N2CCN(C(=O)NC3CCCCC3)C[C@H]12`, the IC50 was > 6.48 µM (inactive).
The value for `COc1ccc(OC)c(NC(=O)c2cc3ccc(O)cc3oc2=Nc2ccc(C(=O)O)cc2)c1` was > 5.54 µM (inactive); that for `CC(C)C[C@H]1NC(=O)[C@H]2CN(C(=O)NC3CCCCC3)CCN2C1=O` was > 6.48 µM (inactive); that for `NC(=O)c1cccc(-c2cccs2)c1` was > 6.74 µM (inactive).
For the compound `COc1cc(OC)c(CN2CCCC(O)C2)cc1Br` (stereo unspecified), the IC50 is > 6.48 µM (inactive).
`CC(C)[C@H]1NC(=O)[C@H]2CN(C(=O)NC3CCCCC3)CCN2C1=O`: the IC50 is > 6.48 µM (inactive).
Take `O=C(O)c1cccc2c1C(=O)N(c1ccccc1)C2`: the IC50 was > 6.31 µM (inactive).
With `CCOc1ccccc1N1CCN(Cc2cc(OC)c(O)c([N+](=O)[O-])c2)CC1`, the IC50 was > 6.48 µM (inactive).
In the case of `COc1cc(C)c2c(c1C=O)Oc1c(c(C)c(O)c3c1C(O)OC3=O)OC2=O` (stereo unspecified), the IC50 is 1.66 µM.
For `C=CCc1cc(Cl)ccc1OCCOCCNCCOC`, the IC50 was > 6.48 µM (inactive).
`c1ccc2c(c1)ncn2CC1CCN(Cc2cn3ccccc3n2)CC1`: the IC50 is > 6.48 µM (inactive).
The figure for `CCOC(=O)C1C2NC(=S)N(c3ccccc3)C1(C)Oc1cc(OC)ccc12` (stereo unspecified) is > 6.4 µM (inactive); for `CCn1ccnc1CN1CCN(Cc2cccc(OC)c2)C(CCO)C1` (stereo unspecified) it is > 6.48 µM (inactive).
For the compound `N#CC1=c2/c(=C/c3ccco3)c(N)c(C#N)n2C(=O)C(c2ccco2)S1` (stereo unspecified), the IC50 was 2.64 µM.
For `COCCCNC(=O)/C(C#N)=C/c1ccc(OCC(=O)O)c(OC)c1`, the IC50 is > 6.48 µM (inactive).
Consider `COC(=O)c1ccc(=O)c2nc3/c(=C/O)c(O)cc(=O)c3[nH]c12`, for which the IC50 is 2.02 µM.
Consider `CN(C)C1C(=O)C(C(N)=O)=C(O)C2(O)C(=O)C3=C(O)c4c(O)cccc4C(C)(O)C3CC12` (stereo unspecified), for which the IC50 is > 6.48 µM (inactive).
`O=C(COC(=O)COc1ccc(Cl)cc1)NCc1ccco1`: the IC50 is > 7.21 µM (inactive).
Consider `CC(C)C[C@H]1C(=O)N2CCN(C(=O)NC3CCCCC3)C[C@@H]2C(=O)N1C`, for which the IC50 was > 6.48 µM (inactive).
As for `c1ccc(-c2ccc(OCCCCn3cncn3)cc2)cc1`, the IC50 is > 6.48 µM (inactive).
As to `CN(C)CCS(=O)c1cc(-c2cn[nH]c2)ccc1NC(=O)[C@H]1Cc2cc(F)ccc2CN1` (stereo partly specified), the IC50 was > 6.48 µM (inactive).
Regarding `NC(=O)c1cncc(-c2cccs2)c1`, the IC50 was > 6.5 µM (inactive).
Regarding `Cc1nnc(CNC(=O)c2ccc(-n3cccc3)cc2)o1`, the IC50 was > 6.48 µM (inactive).
The value for `CC(C)(C)OC(=O)N1C(C(=O)O)CSC1c1cc2c(cc1[N+](=O)[O-])OCO2` (stereo unspecified) was > 6.48 µM (inactive).
In the case of `O=C(CCCCC1SCC2NC(=O)NC21)NC1(c2ccc(F)cc2)CCCC1` (stereo unspecified), the IC50 was > 6.48 µM (inactive).
As to `O=C(O)c1cc(S(=O)(=O)Nc2ccncc2)ccc1O`, the IC50 was > 7.05 µM (inactive).
As for `N#CC(C#N)=Cc1cccn1-c1ccc(C(=O)O)cc1`, the IC50 is > 6.48 µM (inactive).
Turning to `OC[C@H]1OC([S-])[C@H](O)[C@@H](O)[C@@H]1O.[Au+]` (stereo partly specified), the IC50 was > 6.48 µM (inactive).
Regarding `Cc1oc(C(=O)O)cc1CSCCSCc1cc(C(=O)O)oc1C`, the IC50 was > 6.48 µM (inactive).
The figure for `N#CC1=C(N)n2c(s/c(=C\c3ccco3)c2=O)=C(C#N)C1c1ccco1` (stereo unspecified) is > 6.53 µM (inactive); for `O=C(O)c1cccc(-n2cccc2/C=C\[N+](=O)[O-])c1` it is > 6.48 µM (inactive).
`Cc1cc(C(=O)O)ccc1-c1ccc(/C=C2/NC(=O)NC2=O)o1`: the IC50 was > 6.48 µM (inactive).
Turning to `CSc1ccc(C(=O)O)s1`, the IC50 was > 10.2 µM (inactive).
For `O=C(O)c1cc(C(=O)O)cc(-c2ccc(/C=N\n3cnnc3)o2)c1`, the IC50 was > 6.48 µM (inactive).
